From PMC10746543, “Design principles for cyclin K molecular glue degraders” (Nature Chemical Biology, 2023)
“And” between values parts separate entries of the source, which are not always exact repeats. Equal values may be shown once. Read-outs that look alike come from different tables or passages of the source.

Columns and labels:
CDK12–cyclin K and DDB1 = biological target: T1, CDK12–cyclin K and DDB1 (Homo sapiens, UniProt Q16531+Q9NYV4, K965R); test: TR-FRET ternary complex formation assay (compound titration); type: binding
T1 construct: His6–CDK12 (a.a. 713–1,052); full-length or beta-propeller B domain deletion (ΔBPB: a.a. 396–705 deleted) constructs of His6–DDB1ΔBPB, StrepII–Avi–DDB1, or His6–Spy–DDB1; made in house; host or cells: Trichoplusia ni High Five insect cells (baculovirus)
T1 sequence (Q9NYV4 713-1052 K965R): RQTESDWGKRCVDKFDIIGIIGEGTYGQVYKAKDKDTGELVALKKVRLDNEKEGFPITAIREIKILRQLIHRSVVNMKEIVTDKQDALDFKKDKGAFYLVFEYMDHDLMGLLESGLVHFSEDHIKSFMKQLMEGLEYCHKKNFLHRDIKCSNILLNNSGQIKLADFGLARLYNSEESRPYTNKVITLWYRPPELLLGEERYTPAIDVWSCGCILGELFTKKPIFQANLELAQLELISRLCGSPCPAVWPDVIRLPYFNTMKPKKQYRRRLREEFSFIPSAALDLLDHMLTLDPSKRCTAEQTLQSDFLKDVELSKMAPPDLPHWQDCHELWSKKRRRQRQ
T1 sequence (O75909 1-267 partner): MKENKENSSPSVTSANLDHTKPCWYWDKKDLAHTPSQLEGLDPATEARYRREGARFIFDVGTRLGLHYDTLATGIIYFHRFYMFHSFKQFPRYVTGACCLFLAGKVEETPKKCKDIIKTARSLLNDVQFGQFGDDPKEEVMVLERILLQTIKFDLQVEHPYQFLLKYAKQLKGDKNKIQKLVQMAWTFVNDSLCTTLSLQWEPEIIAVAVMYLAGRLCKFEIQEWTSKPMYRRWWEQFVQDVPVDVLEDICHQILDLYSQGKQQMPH
T1 sequence (Q16531 whole entry): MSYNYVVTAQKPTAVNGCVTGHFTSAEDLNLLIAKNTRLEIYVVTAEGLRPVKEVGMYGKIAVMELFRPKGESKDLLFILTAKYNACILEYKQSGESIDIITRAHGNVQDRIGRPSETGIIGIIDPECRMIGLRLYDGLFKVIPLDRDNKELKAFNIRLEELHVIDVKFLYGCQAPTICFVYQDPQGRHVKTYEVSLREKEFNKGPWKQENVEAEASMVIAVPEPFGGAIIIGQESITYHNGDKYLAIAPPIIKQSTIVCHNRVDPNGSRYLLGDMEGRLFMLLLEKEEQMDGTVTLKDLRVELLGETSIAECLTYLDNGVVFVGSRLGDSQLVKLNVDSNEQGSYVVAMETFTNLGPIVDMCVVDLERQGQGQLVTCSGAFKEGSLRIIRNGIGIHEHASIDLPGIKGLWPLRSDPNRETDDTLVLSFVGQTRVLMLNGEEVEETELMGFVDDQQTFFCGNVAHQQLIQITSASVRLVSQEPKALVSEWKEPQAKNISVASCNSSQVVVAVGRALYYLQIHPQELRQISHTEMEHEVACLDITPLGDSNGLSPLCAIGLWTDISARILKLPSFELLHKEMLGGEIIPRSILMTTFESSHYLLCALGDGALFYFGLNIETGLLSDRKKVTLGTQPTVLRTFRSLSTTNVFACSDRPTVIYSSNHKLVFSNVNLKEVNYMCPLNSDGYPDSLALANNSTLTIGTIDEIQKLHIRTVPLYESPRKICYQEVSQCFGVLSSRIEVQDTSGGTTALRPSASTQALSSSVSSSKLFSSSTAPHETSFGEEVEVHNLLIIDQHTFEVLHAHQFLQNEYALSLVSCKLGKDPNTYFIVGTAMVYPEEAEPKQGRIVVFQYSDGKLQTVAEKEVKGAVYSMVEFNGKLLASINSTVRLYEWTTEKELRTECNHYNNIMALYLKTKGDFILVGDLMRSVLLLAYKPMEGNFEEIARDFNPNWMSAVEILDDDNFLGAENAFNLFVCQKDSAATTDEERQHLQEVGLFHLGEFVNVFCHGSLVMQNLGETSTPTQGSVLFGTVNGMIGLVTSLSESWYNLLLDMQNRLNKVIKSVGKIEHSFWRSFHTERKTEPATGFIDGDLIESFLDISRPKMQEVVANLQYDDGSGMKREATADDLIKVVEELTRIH
How it was run: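 Signal was the ratio of 520 nm to 490 nm fluorescence, measured after a 70 μs delay that reduced background.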

[1] = test system: cyclin K–eGFP degradation reporter; test: Cyclin K reporter stability analysis (dual-color cyclin K–eGFP reporter); type: cell-based, human; conditions: source data sheet correlations; read-out: DC50
How it was run: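 HEK293T–Cas9 cells carrying the cyclin K–eGFP reporter were seeded at 1 × 10^6 ml^−1 and exposed to drug or DMSO for 5 h. Flow cytometry gave geometric means of eGFP and mCherry in round, mCherry-positive cells. The eGFP/mCherry ratio was normalized to the mean of three DMSO controls.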

HEK293T cells = test: Drug sensitivity assay (CellTiter-Glo viability) with or without MLN4924 pretreatment; type: cell-based, human; conditions: Supplementary Table 2
How it was run: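 HEK293T–Cas9, 0.15 × 10^6 ml^−1; pretreat DMSO vs 100 nM MLN4924; drugs dispensed after 2 h; 3 d exposure; CellTiter-Glo; viability vs DMSO control.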

CDK12–cyclin K = CDK12–cyclin K (Homo sapiens, UniProt Q9NYV4); test: Lanthascreen kinase binding assay, CDK12; conditions: for Lanthascreen raw signal, sheet CDK12: series r1, duplicates
CDK12–cyclin K, sequence (Q9NYV4 713-1052): as the sequence (Q9NYV4 713-1052 K965R) above, with R253K counted along it
CDK12–cyclin K, sequence (O75909 1-267 partner limits assumed): as the sequence (O75909 1-267 partner) above
Procedure: (§1) Lanthascreen experiments were performed using commercially available reagents (Thermo Fisher) and according to the manufacturer’s instructions.

CDK9–cyclin T = biological target: T2, CDK9–cyclin T (Homo sapiens, UniProt P50750); test: Lanthascreen kinase binding assay, CDK9; conditions: for Lanthascreen TR-FRET signal (raw ratio), sheet CDK9: first titration set (r1), duplicates
T2 construct: purchased Thermo Fisher
T2 sequence (P50750 whole entry): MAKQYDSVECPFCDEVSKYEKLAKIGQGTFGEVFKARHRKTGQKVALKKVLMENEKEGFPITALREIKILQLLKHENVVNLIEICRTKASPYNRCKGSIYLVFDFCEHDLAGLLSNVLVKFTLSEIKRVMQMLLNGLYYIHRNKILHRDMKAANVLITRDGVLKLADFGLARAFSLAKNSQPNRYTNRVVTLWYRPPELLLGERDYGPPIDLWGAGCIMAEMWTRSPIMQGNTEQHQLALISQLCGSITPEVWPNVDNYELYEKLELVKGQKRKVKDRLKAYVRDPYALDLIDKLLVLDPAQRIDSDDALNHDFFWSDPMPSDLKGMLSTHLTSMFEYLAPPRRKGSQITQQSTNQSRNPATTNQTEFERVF
T2 sequence (O60563 whole entry partner): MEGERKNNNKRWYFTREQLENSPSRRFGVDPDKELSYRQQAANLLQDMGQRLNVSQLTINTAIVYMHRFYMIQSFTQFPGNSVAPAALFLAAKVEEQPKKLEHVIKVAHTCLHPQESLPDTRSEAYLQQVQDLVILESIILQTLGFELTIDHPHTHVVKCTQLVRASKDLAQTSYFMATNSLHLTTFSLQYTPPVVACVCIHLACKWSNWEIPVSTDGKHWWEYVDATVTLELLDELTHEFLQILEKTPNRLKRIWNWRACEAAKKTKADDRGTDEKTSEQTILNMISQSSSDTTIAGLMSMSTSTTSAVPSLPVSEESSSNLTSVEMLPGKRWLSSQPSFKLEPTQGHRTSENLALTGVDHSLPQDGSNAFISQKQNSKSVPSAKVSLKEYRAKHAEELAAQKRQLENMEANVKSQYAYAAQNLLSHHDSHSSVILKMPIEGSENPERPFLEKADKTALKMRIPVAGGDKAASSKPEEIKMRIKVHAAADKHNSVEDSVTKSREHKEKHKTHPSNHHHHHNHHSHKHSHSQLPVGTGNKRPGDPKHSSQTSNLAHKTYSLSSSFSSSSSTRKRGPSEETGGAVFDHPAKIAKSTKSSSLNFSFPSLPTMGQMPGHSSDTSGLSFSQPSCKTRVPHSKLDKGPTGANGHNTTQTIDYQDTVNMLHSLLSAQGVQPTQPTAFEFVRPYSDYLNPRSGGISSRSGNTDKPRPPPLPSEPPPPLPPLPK
Procedure: as §1

CDK2–cyclin A = biological target: T3, CDK2–cyclin A (Homo sapiens, UniProt P24941); test: Lanthascreen kinase binding assay, CDK2; conditions: for Lanthascreen signal, sheet CDK2: raw replicates, experiment r1-r11
T3 construct: purchased Thermo Fisher
Procedure: as §1

TR-FRET signal at compound concentration 0.468 nM (CDK12–cyclin K and DDB1; compound concentration 0.468 nM, raw replicate titration data): 0.2798 and 0.3065 and 0.1782 and 0.1849
TR-FRET signal at compound concentration 2.16 nM (CDK12–cyclin K and DDB1; compound concentration 2.16 nM, raw replicate titration data): 0.3614 and 0.3498 and 0.2211 and 0.2229
TR-FRET signal at compound concentration 3.6 nM (CDK12–cyclin K and DDB1; compound concentration 3.6 nM, raw replicate titration data): 0.435 and 0.4393 and 0.2978 and 0.2973
TR-FRET signal at compound concentration 7.92001 nM (CDK12–cyclin K and DDB1; compound concentration 7.92001 nM, raw replicate titration data): 0.5995 and 0.6274 and 0.4373 and 0.4353
TR-FRET signal at compound concentration 15.84 nM (CDK12–cyclin K and DDB1; compound concentration 15.84 nM, raw replicate titration data): 0.9577 and 0.9944 and 0.7392 and 0.7343
TR-FRET signal at compound concentration 30.96 nM (CDK12–cyclin K and DDB1; compound concentration 30.96 nM, raw replicate titration data): 1.593 and 1.564 and 1.2847 and 1.436
TR-FRET signal at compound concentration 62.6401 nM (CDK12–cyclin K and DDB1; compound concentration 62.6401 nM, raw replicate titration data): 1.875 and 1.832 and 1.71 and 1.6908
TR-FRET signal at compound concentration 125.28 nM (CDK12–cyclin K and DDB1; compound concentration 125.28 nM, raw replicate titration data): 1.954 and 1.862 and 1.734 and 1.741
TR-FRET signal at compound concentration 244.8 nM (CDK12–cyclin K and DDB1; compound concentration 244.8 nM, raw replicate titration data): 2.043 and 1.982 and 1.799 and 1.754
TR-FRET signal at compound concentration 993.601 nM (CDK12–cyclin K and DDB1; compound concentration 993.601 nM, raw replicate titration data): 2.0625 and 2.016 and 1.825 and 1.774
TR-FRET signal at compound concentration 2001.6 nM (CDK12–cyclin K and DDB1; compound concentration 2001.6 nM, raw replicate titration data): 1.983 and 1.981 and 1.797 and 1.763
EC50 (CDK12–cyclin K and DDB1; in vitro complex formation, 50 nM CDK12–cyclin K, 100 nM DDB1, text and figures, read-out: TR-FRET EC50): 20 ± 1 nM
EC50 (CDK12–cyclin K and DDB1; sheet MOESM7, read-out: log TR-FRET EC50 (converted)): 19.8 nM
EC50 (CDK12–cyclin K and DDB1; source data sheet correlations, read-out: TR-FRET EC50): 19.8 nM
DC50 [1]: 51 nM
IC50 (CDK12–cyclin K; Supplementary Table 2, read-out: Lanthascreen IC50 [nM] CDK12): 25 nM
Lanthascreen raw signal, sheet CDK12 (CDK12–cyclin K; compound 1.02544 nM): 0.009355 and 0.008483
Lanthascreen raw signal, sheet CDK12 (CDK12–cyclin K; compound 3.15521 nM): 0.00952 and 0.009538
Lanthascreen raw signal, sheet CDK12 (CDK12–cyclin K; compound 9.46563 nM): 0.009122 and 0.008857
Lanthascreen raw signal, sheet CDK12 (CDK12–cyclin K; compound 31.5521 nM): 0.006579 and 0.007668
Lanthascreen raw signal, sheet CDK12 (CDK12–cyclin K; compound 99.3891 nM): 0.005593 and 0.007192
Lanthascreen raw signal, sheet CDK12 (CDK12–cyclin K; compound 315.521 nM): 0.006881 and 0.006508
Lanthascreen raw signal, sheet CDK12 (CDK12–cyclin K; compound 3155.21 nM): 0.007229 and 0.005774
Lanthascreen raw signal, sheet CDK12 (CDK12–cyclin K; compound 10002 nM): 0.005716 and 0.005184
IC50 (CDK9–cyclin T; Supplementary Table 2, read-out: Lanthascreen IC50 [nM] CDK9): 2580 nM
Lanthascreen TR-FRET signal (raw ratio), sheet CDK9 (CDK9–cyclin T; compound 1.02544 nM): 0.01642 and 0.01407
Lanthascreen TR-FRET signal (raw ratio), sheet CDK9 (CDK9–cyclin T; compound 3.15521 nM): 0.01297 and 0.01448
Lanthascreen TR-FRET signal (raw ratio), sheet CDK9 (CDK9–cyclin T; compound 9.46563 nM): 0.01462 and 0.01504
Lanthascreen TR-FRET signal (raw ratio), sheet CDK9 (CDK9–cyclin T; compound 31.5521 nM): 0.01422 and 0.01715
Lanthascreen TR-FRET signal (raw ratio), sheet CDK9 (CDK9–cyclin T; compound 99.3891 nM): 0.0151 and 0.01375
Lanthascreen TR-FRET signal (raw ratio), sheet CDK9 (CDK9–cyclin T; compound 315.521 nM): 0.01436 and 0.01406
Lanthascreen TR-FRET signal (raw ratio), sheet CDK9 (CDK9–cyclin T; compound 3155.21 nM): 0.01124 and 0.01046
Lanthascreen TR-FRET signal (raw ratio), sheet CDK9 (CDK9–cyclin T; compound 10002 nM): 0.00772 and 0.01002
Lanthascreen signal, sheet CDK2 (CDK2–cyclin A; Compound 1.02544 nM): 0.01044 and 0.01012
Lanthascreen signal, sheet CDK2 (CDK2–cyclin A; Compound 3.15521 nM): 0.0108 and 0.009644
Lanthascreen signal, sheet CDK2 (CDK2–cyclin A; Compound 9.46563 nM): 0.01089 and 0.009432
Lanthascreen signal, sheet CDK2 (CDK2–cyclin A; Compound 31.5521 nM): 0.01098 and 0.01188
Lanthascreen signal, sheet CDK2 (CDK2–cyclin A; Compound 99.3891 nM): 0.011 and 0.01075
Lanthascreen signal, sheet CDK2 (CDK2–cyclin A; Compound 315.521 nM): 0.009926 and 0.01051
Lanthascreen signal, sheet CDK2 (CDK2–cyclin A; Compound 3155.21 nM): 0.01049 and 0.01005
Lanthascreen signal, sheet CDK2 (CDK2–cyclin A; Compound 10002 nM): 0.009311 and 0.007215
IC50 (CDK2–cyclin A; Lanthascreen, average, Extended Data Fig. 8, read-out: CDK2 IC50): > 10000 nM
IC50 (CDK2–cyclin A; Supplementary Table 2, read-out: Lanthascreen IC50 [nM] CDK2): > 10000 nM
Structure (SMILES): Cn1cc(-c2cnn3c(NCc4nc5cc(Cl)c(Cl)cc5[nH]4)nc(N4CCOCC4)nc23)cn1 [DS74]
EC50 (HEK293T cells; Homo sapiens, HEK-293T, HEK293T viability, 72 h, compound alone, read-out: Cellular assays EC50): 104 nM
Toxicity rescue (HEK293T cells; MLN4924-mediated cytotoxicity rescue, 10 µM used where n.d.): 916%
